# Experimental data: the supplement of paper PMC10307832
# Columns and labels:
# Test in all cases: relative viability (nuclei count vs DMSO), 5 days (fraction); higher = more cells survive
# [1] = compound: CN1CCN(CC1)C2=CC(=C(C=C2)NC3=NC(=C(S3)C(=O)C4=C(C=CC=C4Cl)Cl)N)OC [XMD14-99] + C[C@]1(O)C[C@@H](c2nc(-c3ccc4ccc(-c5ccccc5)nc4c3)c3c(N)nccn32)C1 [Linsitinib] (partner 1 µM)
# Outline: (§1)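 For relative viability, nuclei counts in treated wells were divided by those in vehicle wells. Lung cancer cell lines had been pin-tool dosed in 1536-well plates the day after seeding and cultured for 5 days, then fixed and stained in one step (final 0.05% Triton X-100, 1% formaldehyde, 1 ug/ml Hoechst) and imaged at 4×. Doses were one drug alone or a fixed anchor-drug dose plus five library-drug doses (not always all listed) in √10 steps, and values are duplicate-plate medians.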
# [2] = compound: CN1CCN(CC1)C2=CC(=C(C=C2)NC3=NC(=C(S3)C(=O)C4=C(C=CC=C4Cl)Cl)N)OC [XMD14-99] + O=C(CCCCCCC(=O)Nc1ccccc1)NO [Vorinostat] (partner 1 µM)
# Outline: as §1
# [3] = compound: CN1CCN(CC1)C2=CC(=C(C=C2)NC3=NC(=C(S3)C(=O)C4=C(C=CC=C4Cl)Cl)N)OC [XMD14-99] + N=C(N)NC(=N)NCCc1ccccc1 [Phenformin] (partner 250 µM)
# Outline: as §1
# [4] = compound: N[C@@H]1CCCN(c2c(/C=C3\SC(=O)NC3=O)cccc2-c2ccccc2)C1 [AZD1208] + Cc1nc(NC(=O)N2CCC[C@H]2C(N)=O)sc1-c1ccnc(C(C)(C)C(F)(F)F)c1 [Alpelisib] (partner 2 µM)
# Outline: as §1
cell line,measurement,setting,value
UMC-11,relative viability,[1]; first compound 0.08 µM,1.03
same,relative viability,[1]; first compound 0.8 µM,1.03
same,relative viability,[1]; first compound 2.53 µM,1.03
same,relative viability,[1]; first compound 8 µM,0.858
same,relative viability,[2]; first compound 0.08 µM,0.422
same,relative viability,[2]; first compound 0.8 µM,0.352
same,relative viability,[2]; first compound 2.53 µM,0.416
same,relative viability,[2]; first compound 8 µM,0.346
same,relative viability,[3]; first compound 0.08 µM,0.336
same,relative viability,[3]; first compound 0.8 µM,0.314
same,relative viability,[3]; first compound 2.53 µM,0.319
same,relative viability,[3]; first compound 8 µM,0.275
same,relative viability,[4]; first compound 0.08 µM,0.757
same,relative viability,[4]; first compound 0.253 µM,0.908
same,relative viability,[4]; first compound 0.8 µM,0.746
same,relative viability,[4]; first compound 2.53 µM,0.77
same,relative viability,[4]; first compound 8 µM,0.488
